Data as given in patent US6365620B2, “Trifluoromethylpyrrolcarboxamides” (Syngenta Crop Protection, Inc., priority 1998, dated 2002).

Cn1cc(C(=O)Nc2ccccc2-c2ccccc2)c(C(F)(F)F)c1 [Compound 1.01, N-(2-biphenylyl)-1-methyl-4-trifluoromethylpyrrol-3-carboxamide]
melting point: 100 to 102 °C
